Source: patent EP0920441B1, “7ALPHA-(EPSILON-AMINOALKYL)-ESTRATRIENES, PROCESS FOR PREPARING THE SAME, PHARMACEUTICAL PREPARATIONS CONTAINING SAID 7ALPHA-(EPSILON-AMINOALKYL)-ESTRATRIENES AND THEIR USE FOR PREPARING MEDICAMENT” (SCHERING AKTIENGESELLSCHAFT, priority 1996, dated 1998)

Assays:
Uterus = Uterus growth test in the infantile rat, p.o. (antiestrogenic / antiuterotrophic activity); format: in vivo, Ratte; conditions: 0,1 mg/kg p.o. once daily for 3 days with 0,5 µg Estradiolbenzoat s.c., inhibition of uterus weight versus EB control
Source text: 1. Uteruswachstumstest bei der infantilen Ratte (antiestrogene Wirkung)
Bei Nagern reagiert der Uterus auf die Applikation von estrogenen mit einer Gewichtszunahme (sowohl Proliferation als auch Wassereinlagerung). Dieses Wachstum ist durch gleichzeitige Gäbe antiestrogen-wirkender Verbindungen dosisabhängig zu hemmen. * = Dimethylbenzanthrazen
Infantile weibliche Ratten im Gewicht von 35-45 g bei Versuchsbeginn, pro Dosis 5-6 Tiere.
Für die p.o. Applikation werden die Substanzen in 1 Teil Ethanol (E) gelöst und mit 9 Teilen Erdnußöl (EÖ) aufgefüllt.
Die gerade von den Müttern abgesetzten jungen Ratten werden zur Eingewöhnung einen Tag vor Behandlungsbeginn geliefert und sofort mit Futter - auch in dem Tierkäfig - versorgt. Die Behandlung erfolgt dann täglich einmal über 3 Tage in Kombination mit 0,5 µg Estradiolbenzoat (EB). EB wird immer subcutan (s.c.) appliziert, während die Testsubstanz p.o. (peroral) verabreicht wird. 24 Stunden nach der letzten Applikation werden die Tiere gewogen, getötet und die Uteri entnommen. Von den präparierten Uteri werden die Feuchtgewichte (ohne Inhalt) ermittelt.
• negative Kontrolle: Vehikel (E/EÖ), 0,2 ml/Tier/Tag • positive Kontrolle: 0,5 µg EB/0,1 ml/Tier/Tag
Von den relativen Organgewichten (mg/100 g Körpergewicht) werden für jede Gruppe die Mittelwerte mit Standardabweichung (X+SD), sowie die Signifikanz der Unterschiede zur Kontrollgruppe (EB) im Dunnett-Test (p<0.05) ermittelt. Die Berechnung der Hemmung (in %) gegenüber der EB-Kontrolle erfolgt mit einem Programm. Die relativen Wirksamkeiten der Prüfsubstanzen werden durch eine Kovarianz- und Regressionsanalyse ermittelt.

humanem Estrogenrezeptor = target: T1, humanem Estrogenrezeptor (Homo sapiens, UniProt P03372); assay: Transactivation assay for antiestrogenic activity in HeLa cells (HEGO + Vit-TK-CAT reporter); format: cell-based; conditions: Hela cells transiently transfected with HEGO and Vit-TK-CAT; in presence of 0,1 nM Estradiol; read-out: IC50 [nM] Hela-Zellen
T1 construct: expressed in transfected cells; host or cells: HeLa cells, transiently transfected with HEGO
T1 sequence (P03372 1-595): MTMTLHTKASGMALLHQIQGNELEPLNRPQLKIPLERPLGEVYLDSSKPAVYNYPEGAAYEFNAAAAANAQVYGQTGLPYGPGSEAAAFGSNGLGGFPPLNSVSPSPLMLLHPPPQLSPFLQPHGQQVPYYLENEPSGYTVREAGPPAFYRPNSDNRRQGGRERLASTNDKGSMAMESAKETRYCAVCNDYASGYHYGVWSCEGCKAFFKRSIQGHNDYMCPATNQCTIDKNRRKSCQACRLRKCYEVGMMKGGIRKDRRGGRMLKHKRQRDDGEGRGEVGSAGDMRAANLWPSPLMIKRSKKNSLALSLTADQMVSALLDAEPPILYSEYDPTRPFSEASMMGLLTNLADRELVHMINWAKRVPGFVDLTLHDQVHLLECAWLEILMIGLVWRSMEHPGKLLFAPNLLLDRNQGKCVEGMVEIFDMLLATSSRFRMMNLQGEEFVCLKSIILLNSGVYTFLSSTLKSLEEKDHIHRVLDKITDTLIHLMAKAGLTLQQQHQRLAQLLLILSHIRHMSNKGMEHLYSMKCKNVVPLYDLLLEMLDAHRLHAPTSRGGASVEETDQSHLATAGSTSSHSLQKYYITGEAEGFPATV
Source text: Die antiestrogene Wirkung der erfindungsgemäßen Verbindungen wurde in Transaktivierungsassays bestimmt [Demirpence E., Duchesne M.-J., Badia E., Gagne D. und Pons M.: MVLN Cells: A Bioluminescent MCF-7-Derived Cell Line to study the Modulation of Estrogenic Activity; J. Steroid. Molec.
Die Hela-Zellen sind transient mit humanem Estrogenrezeptor-Expressionsvektor (HEGO) und Vit-TK-CAT Reportergen und die MVLN-Zellen stabil mit dem Reportergen Vit-TK-LUC transfiziert. Es wurde die […] Wirkstärke in Gegenwart von 0,1 nM Estradiol bestimmt.

[1] = system: DMBA-induzierten Mammatumors; assay: DMBA tumour model in the rat (influence on tumour growth); format: in vivo, Ratte
Source text: Beeinflussung des Tumorwachstums im DMBA*-Modell bei der Ratte (DMBA-Tumormodell)
Das Wachstum des DMBA-induzierten Mammatumors der Ratte ist weitgehend von Estrogenen und Prolaktin abhängig. Wirksame Antiestrogene, Antigestagene und Aromatasehemmer führen zur Hemmung des Tumorwachsturns. Substanzen, die antigonadotrope und androgene Eigenschaften besitzen, entfalten ebenfalls tumorhemmende Wirkung.
45 - 47 Tage alte weibliche Ratten (Sprague-Dawley, Züchter ZIH oder Möllegard), pro Gruppe 8 - 10 Tiere. *9,10-Dimethyl-1,2-benzanthracen
Die Tiere erhalten einmalig 10 mg DMBA oral. Anschließend werden die Tiere einmal wöchentlich palpatorisch auf Tumorentwicklung untersucht. 6 bis 10 Wochen nach der DMBA-Behandlung entwickeln sich etwa 1 bis 10 Tumoren pro Tier. Die Tumorgröße wird einmal wöchentlich mit Hilfe einer Schiebelehre bestimmt. Hat mindestens ein Tumor eine definierte Größe (150 mm^2 Tumorfläche) erreicht, erfolgt die Ovariektomie der Tiere bzw. beginnt die Behandlung der Tiere mit der Testsubstanz. Die Behandlung erfolgt zumeist täglich über ca. 28 Tage (Details Abwicklung siehe Versuchsplan). Die Tumorgröße wird weiterhin 1 x /Woche ermittelt.
Die Gesamttumorgröße pro Tier wird vor Beginn der Behandlung ermittelt (Vorwerte). Für jede Gruppe wird dann der Mittelwert der prozentualen Veränderungen der Tumorgröße, bezogen auf die initialen Werte, errechnet. […]

[2] = Antiestrogenic activity (test not specified)

SMILES | 0,1 mg/kg p.o. % Hemmung (Uterus) | IC50 (humanem Estrogenrezeptor) | Hemmung des Tumorwachstums ([1]; oral dose 3 mg/kg/Tag (Figur 1)) | Hemmung des Tumorwachstums ([1]; oral dose 10 mg/kg/Tag (Figur 1)) | antiestrogene Wirksamkeit [2]
CN(CCCCC[C@@H]1Cc2cc(O)ccc2[C@@H]2[C@@H]1[C@@H]1CC[C@H](O)[C@@]1(C)C[C@@H]2F)CCCSCCCC(F)(F)C(F)(F)F [Beispiel 12, 11β-Fluor-7α-{5-(N-methyl-N-3-(4,4,5,5,5-pentafluorpentylthio)-propytamino]-pentyl}-estra-1,3,5(10)-trien-3,17β-diol] | 91% | 0.06 nM | – | – | –
CN(CCCCC[C@@H]1Cc2cc(O)ccc2[C@H]2CC[C@@]3(C)C(=CC[C@@H]3O)[C@H]12)CCCS(=O)(=O)CCCC(F)(F)C(F)(F)F [Beispiel 25, 7α-{5-[N-Methyl-N-3-(4,4,5,5,5-pentafluorpentansulfonyl)-propylamino]-pentyl}-estra-1,3,5(10),14-tetraen-3,17β-diol] | – | 0.06 nM | – | – | –
C[C@]12C[C@H](F)[C@@H]3c4ccc(O)cc4C[C@@H](CCCCCN4CCC[C@H]4CSCCCC(F)(F)C(F)(F)F)[C@H]3[C@@H]1CC[C@@H]2O [Beispiel 29, 11β-Fluor-7α-{5-[2-(4,4,5,5,5-pentafluorpentylthiomethyl)-pyrrolidin-1-yl]-pentyl}-estra-1,3,5(10)-trien-3,17β-diol] | 80% | 0.13 nM | stärker als eine orale Dosis von 10 mg/kg/Tag 7α-[9-(4,4,5,5,5-Pentafluorpentansulfinyl)-nonyl]-estra-1,3,5(10)-trien-3,17β-diol | – | –
C[C@]12CC[C@@H]3c4ccc(O)cc4C[C@@H](CCCCCCCCC[S+]([O-])CCCC(F)(F)C(F)(F)F)[C@H]3[C@@H]1CC[C@@H]2O (stereo partly drawn) [ZM 182 780, 7α-[9-(4,4,5,5,5-Pentafluorpentansulfinyl)-nonyl]-estra-1,3,5(10)-trien-3,17β-diol, reference compound] | 8% | – | – | nur eine geringfügige Wirkung im Vergleich zur intakten Kontrolle | –
CN(CCCCC[C@@H]1Cc2cc(O)ccc2[C@H]2CC[C@@]3(C)[C@@H](C[C@@H](F)[C@]3(C)O)[C@H]12)CCCS(=O)(=O)CCCC(F)(F)C(F)(F)F [Beispiel 18, 16α-Fluor-17α-methyl-7α-{5-[N-methyl-N-3-(4,4,5,5,5-pentafluorpentansulfonyl)-propylamino]-pentyl}-estra-1,3,5(10)-trien-3,17β-diol] | 16% | 0.05 nM | – | – | –
CN(CCCCC[C@@H]1Cc2cc(O)ccc2[C@@H]2[C@@H]1[C@@H]1CC[C@](C)(O)[C@@]1(C)C[C@@H]2F)CCCSCCCC(F)(F)C(F)(F)F [Beispiel 36, 11β-Fluor-17α-methyl-7α-{5-[N-methyl-N-3-(4,4,5,5,5-pentafluorpentylthio)-propylamino]-pentyl}-estra-1,3,5(10)-trien-3,17β-diol] | 62% | 0.05 nM | – | – | –
CN(CCCCC[C@@H]1Cc2cc(O)ccc2[C@@H]2[C@@H]1[C@@H]1CCC(=O)[C@@]1(C)C[C@@H]2F)CCCSCCCC(F)(F)C(F)(F)F [Beispiel 40, 11β-Fluor-7α-{5-[N-methyl-N-3-{4,4,5,5,5-pentafluorpentylthio)-propylamino]-pentyl}-3-hydroxy-estra-1,3,5(10)-trien-17-on] | – | – | – | – | stark antiestrogen wirksam
CN(CCCCC[C@@H]1Cc2cc(O)ccc2[C@H]2CC[C@@]3(C)[C@@H](C[C@@H](F)[C@]3(C)O)[C@H]12)CCCSCCCC(F)(F)C(F)(F)F [Beispiel 15, 16α-Fluor-17α-methyl-7α-{5-[N-methyl-N-3-(4,4,5,5,5-pentafluorpentylthio)-propylamino]-pentyl}-estra-1,3,5(10)-trien-3,17β-diol] | 33% | 0.06 nM | – | – | –
C[C@]1(O)CC[C@H]2[C@@H]3[C@H](CCCCCN4CCC[C@H]4CSCCCC(F)(F)C(F)(F)F)Cc4cc(O)ccc4[C@H]3[C@@H](F)C[C@@]21C [Beispiel 31, 11β-Fluor-17α-methyl-7α-{5-[(2S)-2-(4,4,5,5,5-pentafluorpentylthiomethyl)-pyrrolidin-1-yl]-pentyl}-estra-1,3,5(10)-trien-3,17β-diol] | 71% | 0.1 nM | – | – | –
